Experimental data as given in patent publication US20050282743A1, “Molecular interactions in cells” (Arbor Vita Corporation, priority 2001, published 2005).
Ends that are not written are not given here. Peptide text beside a SMILES is read from it. * marks the point of attachment. Biotin = O=C1N[C@H]2[C@H](CS[C@H]2CCCCC(=O)*)N1

What was measured:
Test in all cases: G' assay (10 uM PL peptide), results of TABLE 7 and TABLE 12
Assay type in all cases: binding
[1] = target: T1, PDZ protein (GST-PDZ fusion) (Homo sapiens, UniProt P78352)
T1 construct: made in house; host or cells: E. coli (DH5alpha, BL21 or JM109)
How it was run: (§1)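 Binding classes derive from A450 nm of bound biotin-tagged PL peptide. A score of 5 needs A450 above 4 in more than two repeats.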

[2] = target: T2, PDZ protein (GST-PDZ fusion) (Homo sapiens, UniProt Q12959)
T2 construct: made in house; host or cells: E. coli (DH5alpha, BL21 or JM109)
How it was run: as §1

[3] = target: T3, PDZ protein (GST-PDZ fusion) (Homo sapiens, UniProt Q14160)
T3 construct: made in house; host or cells: E. coli (DH5alpha, BL21 or JM109)
How it was run: as §1

[4] = target: T4, PDZ protein (GST-PDZ fusion) (Homo sapiens, UniProt Q15700)
T4 construct: made in house; host or cells: E. coli (DH5alpha, BL21 or JM109)
How it was run: as §1

[5] = target: T5, PDZ protein (GST-PDZ fusion) (Homo sapiens, UniProt Q86UL8)
T5 construct: made in house; host or cells: E. coli (DH5alpha, BL21 or JM109)
How it was run: as §1

[6] = target: T6, PDZ protein (GST-PDZ fusion) (Homo sapiens, UniProt Q8NI35); conditions: PDZ INADL
T6 construct: made in house; host or cells: E. coli (DH5alpha, BL21 or JM109)
How it was run: as §1

[7] = target: T7, PDZ protein (GST-PDZ fusion) (Homo sapiens, UniProt Q92796); conditions: PDZ NeDLG
T7 construct: made in house; host or cells: E. coli (DH5alpha, BL21 or JM109)
T7 sequence (Q92796 1-817): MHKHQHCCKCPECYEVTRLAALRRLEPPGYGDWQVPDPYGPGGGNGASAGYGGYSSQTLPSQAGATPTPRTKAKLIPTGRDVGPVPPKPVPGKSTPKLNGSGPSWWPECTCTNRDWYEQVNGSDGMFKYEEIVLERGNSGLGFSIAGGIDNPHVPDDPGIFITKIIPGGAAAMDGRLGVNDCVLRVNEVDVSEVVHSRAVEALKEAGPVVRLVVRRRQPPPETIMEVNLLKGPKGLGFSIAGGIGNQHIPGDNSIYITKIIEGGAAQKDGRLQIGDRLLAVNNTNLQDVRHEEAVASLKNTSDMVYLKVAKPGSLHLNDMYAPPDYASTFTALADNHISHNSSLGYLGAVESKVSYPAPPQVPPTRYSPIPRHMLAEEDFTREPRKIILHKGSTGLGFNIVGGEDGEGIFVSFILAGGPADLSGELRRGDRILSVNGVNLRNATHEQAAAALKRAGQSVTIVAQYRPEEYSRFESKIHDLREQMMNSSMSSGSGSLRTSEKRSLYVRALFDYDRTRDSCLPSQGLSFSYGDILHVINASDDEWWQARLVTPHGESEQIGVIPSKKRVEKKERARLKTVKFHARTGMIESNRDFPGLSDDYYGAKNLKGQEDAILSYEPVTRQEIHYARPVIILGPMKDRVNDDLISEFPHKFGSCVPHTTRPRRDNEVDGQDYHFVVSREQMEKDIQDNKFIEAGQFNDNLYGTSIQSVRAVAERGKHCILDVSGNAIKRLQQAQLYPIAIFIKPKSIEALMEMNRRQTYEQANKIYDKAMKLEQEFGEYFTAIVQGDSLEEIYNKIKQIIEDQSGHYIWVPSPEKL
How it was run: as §1

[8] = target: T8, PDZ protein (GST-PDZ fusion) (Homo sapiens, UniProt O15018); conditions: PDZ AIPC, PDZ Domain 1
T8 construct: made in house; host or cells: E. coli (DH5alpha, BL21 or JM109)
How it was run: as §1

[9] = PDZ atrophin-1 interacting Protein (Atrophin-1 Inter. Prot.), PDZ Domain 1
[10] = PDZ Atrophin-1 Inter. Prot., PDZ Domain 5
[11] = PDZ atrophin-1 interacting Protein, PDZ Domain 3

T8 sequence (O15018 whole entry, the tested form may be a part): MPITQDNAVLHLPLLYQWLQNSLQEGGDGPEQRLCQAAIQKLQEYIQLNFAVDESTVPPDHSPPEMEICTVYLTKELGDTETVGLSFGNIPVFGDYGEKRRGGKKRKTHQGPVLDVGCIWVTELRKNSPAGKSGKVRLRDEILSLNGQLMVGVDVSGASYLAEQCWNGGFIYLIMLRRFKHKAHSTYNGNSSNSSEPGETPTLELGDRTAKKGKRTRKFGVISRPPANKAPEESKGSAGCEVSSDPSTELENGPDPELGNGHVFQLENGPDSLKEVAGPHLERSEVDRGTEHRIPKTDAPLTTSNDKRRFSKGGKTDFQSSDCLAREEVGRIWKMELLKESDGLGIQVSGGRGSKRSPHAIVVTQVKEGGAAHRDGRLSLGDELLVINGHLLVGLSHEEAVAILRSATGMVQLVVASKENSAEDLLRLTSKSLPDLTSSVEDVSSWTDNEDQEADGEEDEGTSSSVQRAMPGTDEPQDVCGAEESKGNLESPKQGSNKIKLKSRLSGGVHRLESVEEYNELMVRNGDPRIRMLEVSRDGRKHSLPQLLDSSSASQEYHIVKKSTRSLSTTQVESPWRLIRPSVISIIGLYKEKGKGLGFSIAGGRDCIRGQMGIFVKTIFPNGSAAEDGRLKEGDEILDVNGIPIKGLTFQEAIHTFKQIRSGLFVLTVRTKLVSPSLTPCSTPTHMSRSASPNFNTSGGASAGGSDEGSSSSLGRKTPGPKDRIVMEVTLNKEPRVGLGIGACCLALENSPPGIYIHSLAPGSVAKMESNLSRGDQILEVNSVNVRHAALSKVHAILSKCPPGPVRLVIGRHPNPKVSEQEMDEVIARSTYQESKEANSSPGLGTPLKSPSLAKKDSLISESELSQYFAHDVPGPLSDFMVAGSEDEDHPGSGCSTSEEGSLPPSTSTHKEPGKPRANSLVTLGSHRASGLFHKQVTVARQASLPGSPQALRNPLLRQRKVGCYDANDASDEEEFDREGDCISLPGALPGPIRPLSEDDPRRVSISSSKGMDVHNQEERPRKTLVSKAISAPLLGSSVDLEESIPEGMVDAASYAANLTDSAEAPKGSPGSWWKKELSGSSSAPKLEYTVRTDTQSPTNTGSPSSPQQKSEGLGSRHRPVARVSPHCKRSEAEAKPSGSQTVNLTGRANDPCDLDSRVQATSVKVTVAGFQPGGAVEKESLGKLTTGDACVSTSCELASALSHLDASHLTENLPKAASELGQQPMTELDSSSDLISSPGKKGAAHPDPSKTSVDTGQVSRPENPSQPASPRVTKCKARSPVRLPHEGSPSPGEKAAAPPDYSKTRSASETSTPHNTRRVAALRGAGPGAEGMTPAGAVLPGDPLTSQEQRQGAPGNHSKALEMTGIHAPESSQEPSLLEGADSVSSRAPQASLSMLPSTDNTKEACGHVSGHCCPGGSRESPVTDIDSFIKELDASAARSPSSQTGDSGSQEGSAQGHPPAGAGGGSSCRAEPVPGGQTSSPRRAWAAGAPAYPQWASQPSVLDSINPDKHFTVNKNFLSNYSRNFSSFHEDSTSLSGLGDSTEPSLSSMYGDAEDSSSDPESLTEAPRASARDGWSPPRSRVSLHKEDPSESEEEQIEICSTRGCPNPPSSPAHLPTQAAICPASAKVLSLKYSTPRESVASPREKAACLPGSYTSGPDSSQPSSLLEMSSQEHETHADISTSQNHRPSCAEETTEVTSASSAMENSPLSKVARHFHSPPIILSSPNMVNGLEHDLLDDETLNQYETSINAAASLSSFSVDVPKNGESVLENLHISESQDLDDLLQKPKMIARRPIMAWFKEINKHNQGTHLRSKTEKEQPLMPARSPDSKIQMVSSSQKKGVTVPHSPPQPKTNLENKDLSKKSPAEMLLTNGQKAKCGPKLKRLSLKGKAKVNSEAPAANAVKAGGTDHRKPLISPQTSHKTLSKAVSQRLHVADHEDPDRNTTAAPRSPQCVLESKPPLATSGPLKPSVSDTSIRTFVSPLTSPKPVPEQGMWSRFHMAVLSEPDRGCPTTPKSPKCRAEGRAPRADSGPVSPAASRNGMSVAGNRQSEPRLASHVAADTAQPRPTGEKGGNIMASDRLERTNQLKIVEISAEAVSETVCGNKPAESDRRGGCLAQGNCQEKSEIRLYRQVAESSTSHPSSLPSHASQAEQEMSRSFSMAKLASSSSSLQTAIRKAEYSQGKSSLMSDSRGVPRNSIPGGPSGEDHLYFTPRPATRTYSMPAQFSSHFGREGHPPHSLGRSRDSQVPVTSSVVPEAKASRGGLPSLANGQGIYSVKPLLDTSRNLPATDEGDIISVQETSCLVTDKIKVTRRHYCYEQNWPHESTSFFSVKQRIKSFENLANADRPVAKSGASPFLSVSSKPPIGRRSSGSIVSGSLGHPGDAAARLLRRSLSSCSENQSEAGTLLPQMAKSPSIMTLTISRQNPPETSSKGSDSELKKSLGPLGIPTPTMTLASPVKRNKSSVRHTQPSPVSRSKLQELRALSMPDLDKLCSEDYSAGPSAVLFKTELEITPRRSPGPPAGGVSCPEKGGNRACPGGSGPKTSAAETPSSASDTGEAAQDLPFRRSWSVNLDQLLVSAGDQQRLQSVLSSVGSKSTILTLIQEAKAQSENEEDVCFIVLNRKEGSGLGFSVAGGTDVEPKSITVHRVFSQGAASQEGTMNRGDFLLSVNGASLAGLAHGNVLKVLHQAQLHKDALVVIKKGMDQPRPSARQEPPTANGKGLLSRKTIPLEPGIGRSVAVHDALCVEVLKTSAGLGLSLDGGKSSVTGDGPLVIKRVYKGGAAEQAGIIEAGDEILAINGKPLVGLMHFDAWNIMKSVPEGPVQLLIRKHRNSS
T6 sequence (Q8NI35 whole entry, the tested form may be a part): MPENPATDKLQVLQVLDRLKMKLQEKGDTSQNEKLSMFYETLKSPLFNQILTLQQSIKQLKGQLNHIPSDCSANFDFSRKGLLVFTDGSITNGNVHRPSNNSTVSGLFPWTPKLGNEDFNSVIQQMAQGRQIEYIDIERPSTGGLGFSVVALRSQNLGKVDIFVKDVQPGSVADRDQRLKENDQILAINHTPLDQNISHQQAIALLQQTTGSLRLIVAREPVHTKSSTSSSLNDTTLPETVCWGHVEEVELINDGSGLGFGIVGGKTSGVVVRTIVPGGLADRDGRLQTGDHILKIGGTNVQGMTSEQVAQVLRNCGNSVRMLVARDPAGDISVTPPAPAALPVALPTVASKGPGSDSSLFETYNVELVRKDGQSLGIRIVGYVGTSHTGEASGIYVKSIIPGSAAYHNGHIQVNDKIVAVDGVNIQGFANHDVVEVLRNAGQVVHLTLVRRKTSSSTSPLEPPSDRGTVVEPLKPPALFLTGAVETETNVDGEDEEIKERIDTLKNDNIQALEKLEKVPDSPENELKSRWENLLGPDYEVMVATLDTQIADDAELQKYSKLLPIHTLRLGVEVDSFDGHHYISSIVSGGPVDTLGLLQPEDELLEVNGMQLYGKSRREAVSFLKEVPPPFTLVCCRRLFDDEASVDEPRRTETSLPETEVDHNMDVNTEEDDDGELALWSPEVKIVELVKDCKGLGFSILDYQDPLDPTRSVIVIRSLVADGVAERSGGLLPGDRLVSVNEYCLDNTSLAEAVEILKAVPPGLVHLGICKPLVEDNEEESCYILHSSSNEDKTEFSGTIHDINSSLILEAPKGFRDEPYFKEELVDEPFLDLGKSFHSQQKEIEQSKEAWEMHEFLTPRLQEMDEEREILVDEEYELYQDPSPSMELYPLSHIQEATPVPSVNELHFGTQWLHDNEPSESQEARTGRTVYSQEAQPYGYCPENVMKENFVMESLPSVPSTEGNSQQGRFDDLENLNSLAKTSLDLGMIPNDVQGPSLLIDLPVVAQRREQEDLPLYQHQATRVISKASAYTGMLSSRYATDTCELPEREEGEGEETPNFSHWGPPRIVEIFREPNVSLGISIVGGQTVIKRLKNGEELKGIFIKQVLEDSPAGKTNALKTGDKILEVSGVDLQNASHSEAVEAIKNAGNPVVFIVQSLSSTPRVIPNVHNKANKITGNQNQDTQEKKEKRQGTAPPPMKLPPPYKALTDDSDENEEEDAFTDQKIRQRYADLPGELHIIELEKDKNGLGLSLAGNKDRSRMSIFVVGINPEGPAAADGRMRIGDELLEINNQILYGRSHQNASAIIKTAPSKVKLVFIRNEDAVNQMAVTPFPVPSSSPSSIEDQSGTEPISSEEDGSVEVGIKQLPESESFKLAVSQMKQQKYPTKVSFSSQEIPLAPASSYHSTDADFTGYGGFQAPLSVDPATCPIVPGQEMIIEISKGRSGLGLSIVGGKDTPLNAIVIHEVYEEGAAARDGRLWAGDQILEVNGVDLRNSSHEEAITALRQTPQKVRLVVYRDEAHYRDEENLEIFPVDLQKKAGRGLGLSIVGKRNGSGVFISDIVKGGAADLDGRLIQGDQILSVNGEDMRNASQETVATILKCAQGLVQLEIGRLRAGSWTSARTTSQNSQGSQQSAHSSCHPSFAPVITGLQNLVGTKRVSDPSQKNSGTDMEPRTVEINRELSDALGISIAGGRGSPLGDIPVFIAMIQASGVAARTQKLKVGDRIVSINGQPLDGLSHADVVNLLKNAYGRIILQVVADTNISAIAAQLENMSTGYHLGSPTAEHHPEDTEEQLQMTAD

Row | Compound | Classification ([1]; PDZ PSD95, PDZ Domain 1) | Classification ([1]; PDZ PSD95, PDZ Domain 1, 2, 3) | Classification ([1]; PDZ PSD95, PDZ Domain 3) | Classification ([2]; PDZ DLG1, PDZ Domain 1) | Classification ([2]; PDZ DLG1, PDZ Domain 2) | Classification ([3]; PDZ KIAA0147, PDZ Domain 1) | Classification ([4]; PDZ DLG2, PDZ Domain 2) | Classification [5, 9] | Classification ([6]; PDZ Domain 8) | Classification ([7]; PDZ Domain 1) | Classification ([7]; PDZ Domain 1, 2) | Classification ([7]; PDZ Domain 2) | Classification ([7]; PDZ Domain 3) | Classification ([2]; PDZ DLG1, PDZ Domain 1, 2) | Classification ([2]; PDZ DLG1, PDZ Domain 3) | Classification ([3]; PDZ KIAA0147, PDZ Domain 2) | Classification ([3]; PDZ KIAA0147, PDZ Domain 4) | Classification ([4]; PDZ DLG2, PDZ Domain 1) | Classification [5, 10] | Classification [5, 11] | also measured
1 | CC(C)C[C@H](NC(=O)[C@H](CCCNC(=N)N)NC(=O)CNC(=O)CNC(=O)[C@H](CCCNC(=N)N)NC(=O)[C@H](C)NC(=O)[C@@H]1CCCN1C(=O)[C@H](CCCNC(=N)N)NC(=O)CNC(=O)CNC(=O)[C@@H](NC(=O)[C@H](C)NC(=O)CCCC[C@@H]1SC[C@@H]2NC(=O)N[C@@H]21)C(C)C)C(=O)N[C@@H](CCC(N)=O)C(=O)NCC(=O)N[C@@H](CCCNC(=N)N)C(=O)N[C@@H](CCCNC(=N)N)C(=O)N[C@@H](CCC(N)=O)C(=O)N[C@H](C(=O)N[C@@H](CCC(N)=O)C(=O)N[C@H](C(=O)O)C(C)C)[C@@H](C)O [HPV E6 58 (modified)] (Biotin-AVGGRPARGGRLQGRRQTQV-OH; C-terminus assumed) | 5 (A450 nm of 4 more than 2× repeated) | 5 (A450 nm of 4 more than 2× repeated) | 5 (A450 nm of 4 more than 2× repeated) | 5 (A450 nm of 4 more than 2× repeated) | 5 (A450 nm of 4 more than 2× repeated) | 2 (A450 nm 1-2) | 5 (A450 nm of 4 more than 2× repeated) | 5 (A450 nm of 4 more than 2× repeated) | 4 (A450 nm 3-4) | 1 (A450 nm 0-1) | 5 (A450 nm of 4 more than 2× repeated) | 5 (A450 nm of 4 more than 2× repeated) | 2 (A450 nm 1-2) | – | – | – | – | – | – | – | –
2 | CSCC[C@H](NC(=O)[C@H](C)NC(=O)[C@H](CCCNC(=N)N)NC(=O)CNC(=O)[C@@H](NC(=O)[C@H](Cc1c[nH]c2ccccc12)NC(=O)[C@H](CCCNC(=N)N)NC(=O)CNC(=O)CCCC[C@@H]1SC[C@@H]2NC(=O)N[C@@H]21)[C@@H](C)O)C(=O)N[C@@H](CO)C(=O)N[C@@H](C)C(=O)N[C@@H](Cc1c[nH]c2ccccc12)C(=O)N[C@@H](CCCCN)C(=O)N1CCC[C@H]1C(=O)N[C@H](C(=O)N[C@@H](CCCNC(=N)N)C(=O)N[C@@H](CCCNC(=N)N)C(=O)N[C@@H](CCC(=O)O)C(=O)N[C@H](C(=O)N[C@@H](CCC(=O)O)C(=O)N[C@H](C(=O)O)C(C)C)[C@@H](C)O)[C@@H](C)O [HPV E6 #35 (modified)] (Biotin-GRWTGRAMSAWKPTRRETEV-OH; C-terminus assumed) | 5 (A450 nm of 4 more than 2× repeated) | 5 (A450 nm of 4 more than 2× repeated) | 5 (A450 nm of 4 more than 2× repeated) | 5 (A450 nm of 4 more than 2× repeated) | 5 (A450 nm of 4 more than 2× repeated) | 5 (A450 nm of 4 more than 2× repeated) | 5 (A450 nm of 4 more than 2× repeated) | 5 (A450 nm of 4 more than 2× repeated) | 4 (A450 nm 3-4) | 5 (A450 nm of 4 more than 2× repeated) | 5 (A450 nm of 4 more than 2× repeated) | 5 (A450 nm of 4 more than 2× repeated) | 5 (A450 nm of 4 more than 2× repeated) | 5 (A450 nm of 4 more than 2× repeated) | 3 (A450 nm 2-3) | 5 (A450 nm of 4 more than 2× repeated) | 1 (A450 nm 0-1) | 5 (A450 nm of 4 more than 2× repeated) | 4 (A450 nm 3-4) | 4 (A450 nm 3-4) | Classification ([8]; PL peptide 10 uM, Protein Optimal Conc 5): 1 (A450 nm 0-1); Classification ([3]; PDZ KIAA0147, PDZ Domain 3): 4 (A450 nm 3-4); Classification ([5]; PDZ atrophin-1 interacting Protein, PDZ Domain 2): 1 (A450 nm 0-1); Classification ([6]; PDZ Domain 3): 1 (A450 nm 0-1); Classification ([6]; PDZ Domain 5): 1 (A450 nm 0-1)
3 | PYSELNYETSHYPASPDSWV (Biotin-PYSELNYETSHYPASPDSWV) [catenin - delta 2] | 1 (A450 nm 0-1) | 2 (A450 nm 1-2) | – | 1 (A450 nm 0-1) | 2 (A450 nm 1-2) | – | 1 (A450 nm 0-1) | – | 2 (A450 nm 1-2) | – | – | – | 1 (A450 nm 0-1) | 3 (A450 nm 2-3) | – | 3 (A450 nm 2-3) | 1 (A450 nm 0-1) | – | 5 (A450 nm of 4 more than 2× repeated) | 1 (A450 nm 0-1) | Classification [8]: 2 (A450 nm 1-2); Classification ([6]; PDZ Domain 5): 1 (A450 nm 0-1)
4 | GGGGGSGGGGGSGIESVKI [GLUR2 (glutamate receptor 2-modified)] | – | 2 (A450 nm 1-2) | – | – | 1 (A450 nm 0-1) | 1 (A450 nm 0-1) | 1 (A450 nm 0-1) | – | – | – | 2 (A450 nm 1-2) | – | – | 2 (A450 nm 1-2) | – | – | – | – | – | – | Classification [8]: 2 (A450 nm 1-2)
5 | CC[C@H](C)[C@H](NC(=O)[C@H](CO)NC(=O)[C@@H](NC(=O)[C@H](Cc1ccccc1)NC(=O)[C@H](CO)NC(=O)CCCC[C@@H]1SC[C@@H]2NC(=O)N[C@@H]21)[C@@H](C)O)C(=O)N[C@@H](CC(C)C)C(=O)N[C@H](C(=O)N[C@@H](CS)C(=O)N[C@@H](Cc1c[nH]cn1)C(=O)N[C@@H](CCC(N)=O)C(=O)N[C@@H](CCCNC(=N)N)C(=O)N[C@@H](CCCNC(=N)N)C(=O)N[C@H](C(=O)N[C@@H](CCC(N)=O)C(=O)N[C@@H](CCCNC(=N)N)C(=O)N[C@@H](CCCCN)C(=O)N[C@@H](CCC(=O)O)C(=O)N[C@H](C(=O)N[C@H](C(=O)N[C@@H](C)C(=O)O)C(C)C)[C@@H](C)O)[C@@H](C)O)[C@@H](C)O [GluR5-2 (rat)] | 3 (A450 nm 2-3) | 5 (A450 nm of 4 more than 2× repeated) | 5 (A450 nm of 4 more than 2× repeated) | 2 (A450 nm 1-2) | 2 (A450 nm 1-2) | 2 (A450 nm 1-2) | 1 (A450 nm 0-1) | – | – | – | 5 (A450 nm of 4 more than 2× repeated) | 1 (A450 nm 0-1) | 2 (A450 nm 1-2) | 5 (A450 nm of 4 more than 2× repeated) | 1 (A450 nm 0-1) | – | – | 1 (A450 nm 0-1) | – | – | Classification ([5]; PDZ atrophin-1 interacting Protein, PDZ Domain 1): 1 (A450 nm 0-1)
